Experimental data as given in patent US6468983B2, “RNase L activators and antisense oligonucleotides effective to treat telomerase-expressing malignancies” (The Cleveland Clinic Foundation, priority 1997, dated 2002).
Several values for one entry are separate records, joined by “and”; a condition that tells them apart may be missing. Equal entries are not always repeated. Entries after “also recorded” stand apart in the source; their conditions may differ.

Key:
U373-MG tumors = assay: Subcutaneous xenografts in nude mice, intratumoral oligonucleotide; format: in vivo, Balb/c nude mice; conditions: 5 nmol intratumoral daily for 7 days
Experimental: (§1) U251-MG and U373 MG tumor cells (1.0×10^6 cells in 0.1 ml serum free DMEM and 0.1 ml Matrigel) were injected subcutaneously into the right flank of 8-12 week-old female Balb/c nude mice (5 mice for each treatment group). Tumor growth was monitored using calipers every 2- or 3-days. Tumor volume (V) was calculated as (L×W^2)/2, where L=length (mm) and W=width (mm). Oligonucleotide treatment was initiated when the tumors reached an average tumor volume of 60-100 mm^3 (about four to five weeks after injection). Oligonucleotides (5 nmol/20 microliter sterile distilled water) were administered by injecting them directly into the tumor every 24 hr for 7-14 days. Some experiments included lipofectamine at 1 microliter per 20 microliters final volume of oligonucleotide solution. Mice were sacrificed by cervical dislocation the day after the final injection and the tumors were removed, frozen rapidly and 12 μm sections were prepared for histological studies. During all of these experiments, which were approved by the CCF Research Programs Committee, the animals were housed and handled in accordance with the National Institutes of Health guidelines.

U251-MG tumors = assay: as above; format: in vivo, Balb/c nude mice; conditions: for reduction in tumor size during the treatment period: intratumoral daily for 14 days, relative to starting size
Experimental: as §1

telomerase RNA (hTR) = assay: RT-PCR for telomerase RNA in oligonucleotide-treated U251-MG cells; format: cell-based, human; conditions: oligonucleotide 5 μM, 5 hours treatment
Experimental: Chimeric oligonucleotides were synthesised on solid supports and purified as described previously (Torrence et al 1993; Lesiak et al 1993; Xiao et al 1994, 1996; Cirino et al 1997). Tumor cells were seeded at 3×10^5 cells/well (3 ml) in 6-well plates and incubated overnight at 37° C. Cells were then treated with oligonucleotides (5 μM). Five hours later total RNA was isolated by using Trizol solution (GIBCO BRL, Grand Island, N.Y.). Expression of telomerase RNA was determined with RT-PCR. The RNA was reverse transcribed into complementary DNA (cDNA) with random oligos used as a primer, and then the cDNA was diluted three times with buffer 10×PCR buffer (Perkin-Elmer, Norwalk, Conn.) at a final concentration of 1:4. The DNA at each dilution was amplified using primers to antisense and sense sequences on opposite sides of the human telomerase RNA sequence, 5′-[…]-3′ (SEQ ID NO:4) and 5′[…]-3′ […], respectively, or to the GAPDH coding sequence, 5′-[…]-3′ […] and 5′[…]-3′ (SEQ ID NO:7), respectively, producing DNA fragments of 400 bp for telomerase cDNA and 508 bp for the GAPDH cDNA, respectively. The PCR went for 30 cycles (94° C., 1 min; 55° C., 1 min; 72° C., 2 min) for telomerase and 30 cycles (94° C., 1 min; 60° C., 1 min; 74° C., 3 min) for GAPDH. The PCR products were analyzed by 1.2% agarose gel electrophoresis and ethidium bromide staining.
Aliquots of U251-MG cells were treated with the “active” oligonucleotide and the two controls for 5 hours. RNA was then prepared from these cells and subjected to RT-PCR to detect telomerase RNA. […] In contrast, telomerase RNA (hTR) was present in cells treated with the control oligonucleotides; spA2-anti-hTR and spA4-anti-(M6)hTR. Thus, hTR could be selectively destroyed in U251-MG cells. Since the RT-PCR assay is not quantitative, it was not possible to assess whether treatment with the spA2-anti-hTR , which has the fully complementary target sequence, had any antisense effect by itself (see below). […]

[1] = system: intracranial U373-MG tumors; assay: Survival of mice with intracranial malignant glioma, intracranial injection; format: in vivo, Balb/c nude mice
Experimental: To establish murine models with intracranial tumors of U373-MG human malignant glioma cells, Balb/c nude mice were used. Mice (8-12 week-old male) were anesthetized using ketamine (90 mg/kg) and xylazine (10 mg/kg) and placed in a stereotaxic frame (Lab Standard w/18 Degree Earbars, Stoelting, Wood Dale, Ill.). Inoculation of 5×10^5 tumor cells (10 microliter of a tumor cell suspension of 5×10^7/ml in serum free DMEM [0.5 ml] and matrigel [0.5 ml]) was performed transcranially using a 27-gauge stainless-steel needle and microliter syringe (Perfectum, Popper & Sons, Inc., New Hyde Park, N.Y.). The needle insertion was in the skull 1 mm anterior and.2 mm lateral to the bregma and the depth of insertion was 4 mm from the skull (the caudate nucleus). The needle was left in place for 3 min and then withdrawn slowly over another minute. Two weeks after inoculation of tumor cells, mice were deeply anesthetized with ketamine/xylazine, and sacrificed by transcardiac perfusion with 4% formaldehyde. The brains were then sliced to include the injection site, and 12 μm sections were made for histological analysis. To determine the effect of 2-5A-anti-hTR on intracranial tumors, spA4-anti-hTR (3 nmol/10 microliter distilled water/3 microliter Lipofectamine, three times) was injected intracranially into the tumors via the same coordinates three weeks after inoculation of tumor cells (on Days 21, 23, and 25).

U251-MG cells = assay: Cell viability assay, trypan blue dye exclusion, oligonucleotide in water every 12 hr; format: cell-based, human; conditions: 5 micromolar every 12 hr
Experimental: The cytotoxic effect of 2-5A activator antisense complexes on tumor cells was determined using the trypan blue dye exclusion assay. Tumor cells were seeded at 10^4 cells/well (0.1 ml) in 96-well flat-bottomed plates and incubated overnight at 37° C. Then, oligonucleotides (5 micromolar) in water were added into cells every 12 hr. On successive days the cells were harvested and 25% of the total was examined microscopically to determine the percentage of viable cells, another 25% was replated to continue treatment and the remaining 50% were used for the TRAP assay.
Knowing that hTR could be inactivated by the 2-5A antisense treatment, U251-MG cells were treated every 12 hours over a 14 day period with the same three oligonucleotides. 79% of the cells treated with spA4-anti-hTR were killed over the 14 day period with a significant (50%) reduction in cell viability after only 5 days. […] These experiments have since been repeated on a number of occasions with U251-MG cells to test new batches of oligonucleotides, always with the same results. […] Thus, after 14 days from the initial treatment with spA4-anti-hTR, the viability of U251-MG cells, as shown by Trypan-blue exclusion assays, was suppressed in all cases.

Sp5′A2′p(5′A2p)3-[(Bu)p]2-5′GCG CGG GGA GCA AAA GCA C3′-3′T5′ (antisense GCGCGGGGAGCAAAAGCAC; 5'-thiophosphate 2-5A tetramer, butanediol linkers, 3'-3'T cap, chemistry not fully specified) [spA4-anti-hTR, 2-5A tetramer linked by butanediol linkers to 19-mer antisense against human telomerase RNA nucleotides 76 to 94]
tumor growth (in words) (U373-MG tumors): significantly suppressed the growth; also recorded: failed to grow progressively
tumor growth (in words) (U251-MG tumors; 5 nmol intratumoral daily for 7 days): significantly suppressed the growth; also recorded: failed to grow progressively
average net weight of the tumors after treatment (U251-MG tumors; 14 days treatment): 54.0 ± 28.7 mg
further change in tumor size (in words) (U251-MG tumors; days 8-14 of the treatment compared with first 7 days): only a marginal additional reduction in size
reduction in tumor size during the treatment period (U251-MG tumors): 48% and 50%
reduction in tumor size during the treatment period (U251-MG tumors; listed as 2-5A-anti-hTR): 50%
telomerase RNA (hTR) detected by RT-PCR (telomerase RNA (hTR)): no detectable telomerase RNA
survival of mice ([1]; 9 weeks after inoculation of tumor cells, 3 nmol plus Lipofectamine intracranially on Days 21, 23, 25): 50%
mice survived ([1]; at 62 days post-tumor implantation): 50%
survival of mice (in words) ([1]; intracranial injection): Enhanced survival
cell death / effect on viability (in words) (U251-MG cells; 14 days): vast majority of cells can be killed
reduction in cell viability (U251-MG cells; after 5 days): 50%
cells killed (U251-MG cells; over the 14 day period): 79%
